Experiments:
water vapor sorption = type: physicochemical
Protocol: Water Vapor Sorption. Data were collected with a SGA-100 water vapor sorption balance (VTI Corporation, Hialeah, Fla.). A portion of the selected sample was weighed into a platinum sample pan and placed into the instrument. The sample was cycled from low (5%) relative humidity (RH) to high (95%) RH to low humidity (i.e., sorption and desorption events) at a constant temperature of 25° C., in 5% RH intervals. The sample was held at each interval until the equilibrium condition was met (i.e., 0.0005% for 3 min, with a maximum of 600 min).

[1] = relative stability of the crystalline forms; type: physicochemical; settings: dihydrate form of Form IIIS
Excerpt: Above this humidity, Form IIIS absorbed approximately 1.4%-1.5% water at 95% RH.

[2] = in vivo; compared with naloxone and naltrexone; cited from earlier work
acute dependence model = settings: high doses; cited from earlier work
chronic dependence model = settings: cited from earlier work
[3] = slurry experiments (stability of the crystalline forms); type: physicochemical
Protocol: Slurry Experiments. The stability of the crystalline forms was analyzed using slurry experiments. A portion of the solvent of interest was saturated with 6-beta-naltrexol base or 6-beta-naltrexol hydrochloride in a small vial. Additional 6-beta-naltrexol base or 6-beta-naltrexol hydrochloride was then added to the vial, and the resulting slurry was stirred using a magnetic stir bar.

[4] = solubility in a mixture of alcohol and water; type: physicochemical; settings: compared with Form IB
[5] = resistance to degradation in air; type: physicochemical; settings: compared with Form IB

Cl.Oc1ccc2c3c1O[C@H]1[C@H](O)CC[C@@]4(O)[C@@H](C2)N(CC2CC2)CC[C@]314 [Form IIIS, 6-beta-naltrexol hydrochloride]
stability to humidity (water vapor sorption; above 15% RH, 25° C.): reasonably stable up to approximately 90% RH | solid form at the conclusion of the sorption experiment (pXRD) (water vapor sorption; after sorption/desorption cycle 5%-95%-5% RH): still comprised predominately Form IIIS | water absorbed (water vapor sorption; at 95% RH, 25° C.): 1.4%-1.5% | hysteresis during desorption (water vapor sorption; desorption, 25° C.): minimal hysteresis | water lost (water vapor sorption; humidities below 15% RH, 25° C., of its original 8.9% water content): approximately 4.5% | relative stability among crystalline forms [1]: most stable of all the crystalline forms of 6-beta-naltrexol hydrochloride

Oc1ccc2c3c1OC1C(O)CC[C@@]4(O)[C@@H](C2)N(CC2CC2)CC[C@]314 (stereo partly drawn) [6-beta-naltrexol, morphinan-3,6,14-triol,17-(cyclopropylmethyl)-4,5-epoxy]
duration of action [2]: longer duration of action than naloxone and naltrexone | withdrawal precipitated (acute dependence model): only minimal withdrawal | fold less potent than naloxone in precipitating withdrawal (chronic dependence model; relative to naloxone): ~30 fold | fold less potent than naltrexone in precipitating withdrawal (chronic dependence model; relative to naltrexone): approximately 77 fold

Cl.Oc1ccc2c3c1O[C@H]1[C@H](O)CC[C@@]4(O)[C@@H](C2)N(CC2CC2)CC[C@]314 [Form IIS, 6-beta-naltrexol hydrochloride]
time the form was stable in slurry ([3]; isopropyl alcohol slurry): at least 8 days

Cl.Oc1ccc2c3c1O[C@H]1[C@H](O)CC[C@@]4(O)[C@@H](C2)N(CC2CC2)CC[C@]314 [Form IVS, 6-beta-naltrexol hydrochloride]
time the form was stable in slurry ([3]; ethyl alcohol slurry): at least 15 days

Oc1ccc2c3c1O[C@H]1[C@H](O)CC[C@@]4(O)[C@@H](C2)N(CC2CC2)CC[C@]314 [Form IIB, 6-beta-naltrexol base]
solubility [4]: greater solubility in a mixture of alcohol and water than Form IB | resistance to degradation in air [5]: more resistant to degradation in air than Form IB
